As usually defined, the IC50 is the concentration that inhibits the measured activity by half.

These results are taken from US11312712B2, “Azabenzimidazoles and their use as AMPA receptor modulators” (Janssen Pharmaceutica NV, priority 2015, dated 2022).

This assay has as its target GluA1o-γ8 (GRIA1o-CACNG8 fusion construct) (Homo sapiens (Human), UniProt P42261+Q8WXS5). The assay is described as follows: Calcium flux assay (FLIPR), inhibition of TARP γ8 dependent AMPA receptor activity. The following applies: GluA1o-γ8 (GRIA1o-CACNG8 fusion) in HEK293 cells, calcium flux after 15 μM glutamate. The assay is classed as cell-based. The gist of the method:
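HEK293 cells stably expressing a 1:1 GRIA1o–CACNG8 fusion were loaded with Calcium-5/6 dye plus compound in pH 7.4 HEPES-buffered saline. FLIPR calcium flux after 15 μM glutamate was normalized to untreated and 10 μM CP465022 controls, and a four-parameter logistic fit gave pIC50.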
Background: A change in cytosolic calcium serves as a functional read-out for many receptors and channels.

GluA1o-γ8 (GRIA1o-CACNG8 fusion construct), sequence (P42261 other isoform, or with tags, fused parts or gaps): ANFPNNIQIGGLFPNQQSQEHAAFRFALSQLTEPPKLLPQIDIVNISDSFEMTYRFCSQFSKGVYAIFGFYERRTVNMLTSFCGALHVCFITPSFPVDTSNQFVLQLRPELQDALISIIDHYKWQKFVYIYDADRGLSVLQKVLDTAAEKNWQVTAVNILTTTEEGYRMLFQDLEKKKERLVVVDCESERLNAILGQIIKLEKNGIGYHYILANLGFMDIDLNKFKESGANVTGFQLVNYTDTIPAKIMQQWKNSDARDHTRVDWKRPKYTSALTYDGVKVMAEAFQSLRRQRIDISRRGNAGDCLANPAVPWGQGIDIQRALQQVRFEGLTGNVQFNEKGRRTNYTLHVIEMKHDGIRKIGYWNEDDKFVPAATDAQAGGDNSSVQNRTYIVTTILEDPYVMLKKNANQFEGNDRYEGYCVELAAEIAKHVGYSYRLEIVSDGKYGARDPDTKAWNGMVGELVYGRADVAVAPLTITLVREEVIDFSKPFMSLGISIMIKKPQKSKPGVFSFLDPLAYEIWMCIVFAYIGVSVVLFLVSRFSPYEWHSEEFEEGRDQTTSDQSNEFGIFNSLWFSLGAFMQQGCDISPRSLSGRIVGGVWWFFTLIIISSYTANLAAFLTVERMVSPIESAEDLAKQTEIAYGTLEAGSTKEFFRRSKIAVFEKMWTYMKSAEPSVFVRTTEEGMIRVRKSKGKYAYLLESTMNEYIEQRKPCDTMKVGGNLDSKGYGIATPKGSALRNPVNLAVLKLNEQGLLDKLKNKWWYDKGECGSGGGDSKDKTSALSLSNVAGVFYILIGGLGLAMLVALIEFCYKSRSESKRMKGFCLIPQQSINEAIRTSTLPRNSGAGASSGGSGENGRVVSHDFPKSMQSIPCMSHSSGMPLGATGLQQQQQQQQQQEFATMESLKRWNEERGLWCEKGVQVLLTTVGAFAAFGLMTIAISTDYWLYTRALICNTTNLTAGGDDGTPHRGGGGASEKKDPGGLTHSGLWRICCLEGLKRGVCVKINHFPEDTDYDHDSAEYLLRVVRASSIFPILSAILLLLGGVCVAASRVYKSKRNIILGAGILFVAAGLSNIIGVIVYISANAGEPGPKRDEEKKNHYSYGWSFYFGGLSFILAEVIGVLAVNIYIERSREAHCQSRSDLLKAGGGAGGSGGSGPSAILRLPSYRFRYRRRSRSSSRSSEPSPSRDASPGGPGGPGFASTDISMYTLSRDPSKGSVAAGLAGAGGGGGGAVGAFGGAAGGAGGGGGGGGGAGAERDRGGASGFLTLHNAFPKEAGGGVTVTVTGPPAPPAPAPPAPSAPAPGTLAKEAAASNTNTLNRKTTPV

On to `Cc1cc(-n2c(C(C)C)nc3ccc(C(F)(F)F)nc32)cc2[nH]ncc12` [Example 311, 2-Isopropyl-3-(4-methyl-1H-indazol-6-yl)-5-(trifluoromethyl)imidazo[4,5-b]pyridine], for which the IC50 was 15.8 nM.

For the molecule `Cc1nc2ccc(C(F)(F)F)nc2n1-c1cc(Cl)c2[nH]ncc2c1` [Example 312, 3-(7-Chloro-1H-indazol-5-yl)-2-methyl-5-(trifluoromethyl)imidazo[4,5-b]pyridine], the IC50 is 0.251 nM.

As for `Cc1nc2ccc(C(F)(F)F)nc2n1-c1cc(Cl)c2c(c1)CC(=O)N2` [Example 313, 7-Chloro-5-[2-methyl-5-(trifluoromethyl)imidazo[4,5-b]pyridin-3-yl]indolin-2-one], the IC50 is 1 nM.

For `CCc1nc2ccc(C(F)(F)F)nc2n1-c1cc(Cl)c2[nH]ncc2c1` [Example 314, 3-(7-Chloro-1H-indazol-5-yl)-2-ethyl-5-(trifluoromethyl)imidazo[4,5-b]pyridine], the IC50 is 0.0316 nM.

Turning to `CCc1nc2ccc(C(F)(F)F)nc2n1-c1cc(C)c2[nH]ncc2c1` [Example 315, 2-Ethyl-3-(7-methyl-1H-indazol-5-yl)-5-(trifluoromethyl)imidazo[4,5-b]pyridine], the IC50 is 0.1 nM.

Turning to `CC(C)c1nc2ccc(C(F)(F)F)nc2n1-c1cc(Cl)c2[nH]ncc2c1` [Example 316, 3-(7-Chloro-1H-indazol-5-yl)-2-isopropyl-5-(trifluoromethyl)imidazo[4,5-b]pyridine], the IC50 is 0.02 nM.

In the case of `Cc1cc(-n2c(C(F)(F)F)nc3cccnc32)cc2cn[nH]c12` [Example 317, 3-(7-Methyl-1H-indazol-5-yl)-2-(trifluoromethyl)imidazo[4,5-b]pyridine], the IC50 is 10 nM.

`Cc1cc(-n2c(C(F)(F)F)nc3cccnc32)cc2c1NC(=O)C2` [Example 318, 7-Methyl-5-[2-(trifluoromethyl)imidazo[4,5-b]pyridin-3-yl]indolin-2-one]: the IC50 was 31.6 nM.

Regarding `Cc1cc(-n2c(C)nc3ccc(C(F)(F)F)nc32)cc2cn[nH]c12` [Example 319, 2-Methyl-3-(7-methyl-1H-indazol-5-yl)-5-(trifluoromethyl)imidazo[4,5-b]pyridine], the IC50 was 0.631 nM.

In the case of `FC(F)(F)c1nc2ccc(-c3ccccn3)nc2n1-c1ccc2[nH]ncc2c1` [Example 320, 3-(1H-Indazol-5-yl)-5-(2-pyridyl)-2-(trifluoromethyl)imidazo[4,5-b]pyridine], the IC50 is 200 nM.

As for `FC(F)c1ccc2nc(C3CC3)n(-c3ccc4[nH]ncc4c3)c2n1` [Example 321, 2-Cyclopropyl-5-(difluoromethyl)-3-(1H-indazol-5-yl)imidazo[4,5-b]pyridine], the IC50 is 1 nM.

As to `Fc1ccc(-c2nc3ccc(C(F)F)nc3n2-c2ccc3[nH]ncc3c2)cc1` [Example 322, 5-(Difluoromethyl)-2-(4-fluorophenyl)-3-(1H-indazol-5-yl)imidazo[4,5-b]pyridine], the IC50 was 0.0631 nM.

In the case of `FC(F)c1ccc2nc(-c3ccccc3)n(-c3ccc4[nH]ncc4c3)c2n1` [Example 323, 5-(Difluoromethyl)-3-(1H-indazol-5-yl)-2-phenyl-imidazo[4,5-b]pyridine], the IC50 is 0.0501 nM.

Consider `FC(F)c1ccc2nc(C(F)(F)F)n(-c3cc(Cl)c4[nH]ncc4c3)c2n1` [Example 324, 3-(7-Chloro-1H-indazol-5-yl)-5-(difluoromethyl)-2-(trifluoromethyl)imidazo[4,5-b]pyridine], for which the IC50 is 0.0501 nM.

Regarding `O=C1Cc2cc(-n3c(C(F)(F)F)nc4ccc(C(F)F)nc43)cc(F)c2N1` [Example 325, 5-[5-(Difluoromethyl)-2-(trifluoromethyl)imidazo[4,5-b]pyridin-3-yl]-7-fluoro-indolin-2-one], the IC50 is 0.316 nM.

Turning to `Cc1cc(-n2c(C(F)(F)F)nc3ccc(C(F)F)nc32)cc2cn[nH]c12` [Example 326, 5-(Difluoromethyl)-3-(7-methyl-1H-indazol-5-yl)-2-(trifluoromethyl)imidazo[4,5-b]pyridine], the IC50 was 0.0398 nM.

Consider `Cc1ccc2nc(-c3ccnc(F)c3)n(-c3cc(Cl)c4[nH]ncc4c3)c2n1` [Example 327, 3-(7-Chloro-1H-indazol-5-yl)-2-(2-fluoro-4-pyridyl)-5-methyl-imidazo[4,5-b]pyridine], for which the IC50 was 0.251 nM.

With `Cc1cc(-n2c(CO)cc3ccc(C(F)(F)F)nc32)cc2c1NC(=O)C2` [Example 329, 5-(2-(Hydroxymethyl)-6-(trifluoromethyl)-1H-pyrrolo[2,3-b]pyridin-1-yl)-7-methylindolin-2-one], the IC50 was 1 nM.

As to `OCc1cc2ccc(C(F)(F)F)nc2n1-c1ccc2[nH]ncc2c1` [Example 330, (1-(1H-Indazol-5-yl)-6-(trifluoromethyl)-1H-pyrrolo[2,3-b]pyridin-2-yl)methanol], the IC50 is 25.1 nM.

Regarding `Cc1cc(-n2c(C)cc3ccc(C(F)(F)F)nc32)cc2c1NC(=O)C2` [Example 331, 7-Methyl-5-(2-methyl-6-(trifluoromethyl)-1H-pyrrolo[2,3-b]pyridin-1-yl)indolin-2-one], the IC50 is 0.01 nM.

`Cc1cc(-n2c(C(C)C)cc3cccnc32)cc2cn[nH]c12` [Example 332, 5-(2-Isopropyl-1H-pyrrolo[2,3-b]pyridin-1-yl)-7-methyl-1H-indazole]: the IC50 was 0.0398 nM.

Consider `Cc1cc2cccnc2n1-c1cc(Cl)c2[nH]ncc2c1` [Example 333, 1-(7-Chloro-1H-indazol-5-yl)-2-methyl-pyrrolo[2,3-b]pyridine], for which the 50% inhibitory concentration (IC50) is 6.31 nM.

`Cc1cc(-n2c(C(C)C)cc3ccc(C(F)F)nc32)cc2c1NC(=O)C2` [Example 334, 5-[6-(Difluoromethyl)-2-isopropyl-pyrrolo[2,3-b]pyridin-1-yl]-7-methyl-indolin-2-one]: the IC50 is 0.0398 nM.

`CC(C)c1cc2ccc(C(F)(F)F)nc2n1-c1ccc2[nH]ncc2c1` [Example 335, 1-(1H-Indazol-5-yl)-2-isopropyl-6-(trifluoromethyl)pyrrolo[2,3-b]pyridine]: the IC50 was 0.0158 nM.

Take `Cc1cc(-n2c(C(F)F)cc3ccc(C(F)(F)F)nc32)cc2c1NC(=O)C2` [Example 336, 5-[2-(Difluoromethyl)-6-(trifluoromethyl)pyrrolo[2,3-b]pyridin-1-yl]-7-methyl-indolin-2-one]: the IC50 was 0.01 nM.

Turning to `O=c1[nH]c2ccc(-n3c(C(F)F)cc4ccc(C(F)(F)F)nc43)cc2s1` [Example 337, 6-[2-(Difluoromethyl)-6-(trifluoromethyl)pyrrolo[2,3-b]pyridin-1-yl]-3H-1,3-benzothiazol-2-one], the IC50 was 0.126 nM.

In the case of `Cc1cc2cccnc2n1-c1cc(Cl)c2c(c1)CC(=O)N2` [Example 338, 7-Chloro-5-(2-methylpyrrolo[2,3-b]pyridin-1-yl)indolin-2-one], the IC50 is 7.94 nM.

As for `Cc1cc(-n2cc(O)c3ccc(C(F)(F)F)nc32)cc2cn[nH]c12` [Example 339, 1-(7-Methyl-1H-indazol-5-yl)-6-(trifluoromethyl)pyrrolo[2,3-b]pyridin-3-ol], the IC50 was 79.4 nM.

As to `Cc1cc(-n2cc(C(F)F)c3ccc(C(F)(F)F)nc32)cc2cn[nH]c12` [Example 340, 3-(Difluoromethyl)-1-(7-methyl-1H-indazol-5-yl)-6-(trifluoromethyl)pyrrolo[2,3-b]pyridine], the IC50 was 12.6 nM.

For `Cc1ccc2ccn(-c3cc(C)c4[nH]ncc4c3)c2n1` [Example 341, 6-Methyl-1-(7-methyl-1H-indazol-5-yl)pyrrolo[2,3-b]pyridine], the IC50 was 15.8 nM.

`Cc1ccc2cc(C(C)C)n(-c3ccc4c(c3)CC(=O)N4)c2n1` [Example 342, 5-(2-Isopropyl-6-methyl-pyrrolo 2,3-bpyridin-1-yl)indolin-2-one]: the IC50 was 0.251 nM.

For the molecule `COc1ccc2cc(-c3ccc(F)cc3)n(-c3ccc4[nH]ccc4c3)c2n1` [Example 343, 2-(4-Fluorophenyl)-1-(1H-indol-5-yl)-6-methoxy-pyrrolo[2,3-b]pyridine], the IC50 is 631 nM.

Consider `Fc1ccc(-c2cc3cccnc3n2-c2ccc3c(c2)CCN3)cc1` [Example 344, 2-(4-Fluorophenyl)-1-indolin-5-yl-pyrrolo[2,3-b]pyridine], for which the IC50 is 501 nM.

As to `Fc1ccc(-c2cc3cccnc3n2-c2ccc3[nH]ccc3c2)cc1` [Example 345, 2-(4-Fluorophenyl)-1-(1H-indol-5-yl)pyrrolo[2,3-b]pyridine], the IC50 was 79.4 nM.

In the case of `O=C1Cc2cc(-n3c(-c4ccc(F)cc4)c(Br)c4cccnc43)ccc2N1` [Example 346, 5-[3-Bromo-2-(4-fluorophenyl)pyrrolo[2,3-b]pyridin-1-yl]indolin-2-one], the IC50 was 3.98 nM.

With `O=C1Cc2cc(-n3c(-c4ccc(F)cc4)cc4cccnc43)ccc2N1` [Example 347, 5-[2-(4-Fluorophenyl)pyrrolo[2,3-b]pyridin-1-yl]indolin-2-one], the IC50 is 2.51 nM.

Turning to `Fc1ccc(-c2cc3ccc(F)nc3n2-c2ccc3[nH]ccc3c2)cc1` [Example 348, 6-Fluoro-2-(4-fluorophenyl)-1-(1H-indol-5-yl)pyrrolo[2,3-b]pyridine], the IC50 was 100 nM.

Take `O=C1Cc2cc(-n3c(-c4ccc(F)cc4)c(Br)c4ccc(F)nc43)ccc2N1` [Example 349, 5-[3-Bromo-6-fluoro-2-(4-fluorophenyl)pyrrolo[2,3-b]pyridin-1-yl]indolin-2-one]: the IC50 was 3.98 nM.

For the molecule `O=C1Cc2cc(-n3c(-c4ccc(F)cc4)cc4ccc(F)nc43)ccc2N1` [Example 350, 5-[6-Fluoro-2-(4-fluorophenyl)pyrrolo[2,3-b]pyridin-1-yl]indolin-2-one], the half-inhibitory concentration (IC50) was 0.794 nM.

On to `Cc1cc2ccc(C(F)(F)F)nc2n1-c1ccc2[nH]ccc2c1` [Example 351, 1-(1H-Indol-5-yl)-2-methyl-6-(trifluoromethyl)pyrrolo[2,3-b]pyridine], for which the IC50 is 25.1 nM.
